Laboratory results from US12239645B2, “Targeted dosing for the treatment of complement mediated disorders” (Achillion Pharmaceuticals, Inc., priority 2018, dated 2025).
Read-outs that look alike come from different tables or passages of the source.

Assays:
Format in all cases: in vivo, human
[1] = Phase I single ascending dose (SAD) study: plasma and urine pharmacokinetics; details: for Aeu(%), GM / Aeu(%), Mean: percentage of dose
Method: A single ascending dose (SAD) study was the first-in-human study of Compound 1. […] Secondary objectives included evaluation of the pharmacokinetic (PK) profile and the relationship between Compound 1 PK and pharmacodynamic (PD) characteristics, that is, the inhibition of complement alternative pathway (AP) activity (PK/PD).
(§1) […] were dosed and evaluated in 4 dose groups with ten subjects receiving placebo (Table 1). The first dose group had 6 active and 6 placebo subjects; subsequent groups had 6 active and 2 placebo subjects each. Each group was followed for 28 days after dosing. All subjects were monitored for safety through the last scheduled visit at Day 28. Blood and urine samples were collected at predefined time points from Days 1 to 4 to determine plasma and urine concentrations of Compound 1 and from Days 1 to 7 to determine complement related activities. Results of serum AP activity measured by AP Wieslab assay as well as plasma Bb, factor D level and several other PD biomarkers were determined.
For the 18 subjects comprising the Groups 1-3 SAD PK population, a total of 306 plasma samples (17 samples from each subject collected pre-dose and 0.5, 1, 1.5, 2, 2.5, 3, 4, 6, 8, 10, 12, 16, 24 [Day 2], 48 [Day 3], 72 [Day 4], and 144 [Day 7] hours post-dose) were available for PK determination in plasma.
Single ascending doses of Compound 1 were evaluated to determine plasma and urine PK parameters over the dose range of 40 mg to 120 mg studied. Summary statistics for plasma and urine Compound 1 concentration at each nominal sampling time point are presented by randomized treatment group in Table 2.

[2] = tested on: fD, C3, C4, classical pathway (CP) function; assay: Other complement assays (fD, C3, C4 serum concentration, serum total CP function)
Method: as §1
Serum AP hemolysis activity was assessed in samples collected from all cohorts at predefined time points from Day 1 (pre-dose) through Day 21. Intense sampling was obtained on Day 1 (0 h to 12 h), Day 7 (0 h to 12 h), and Day 14 (0 h to 16 h); all other serum samples were collected at 0 h (morning PK troughs) on the indicated days. […] Serum complement AP activity measured ex vivo by the AP Wieslab assay, serum total complement classical pathway (CP) activity, plasma complement Bb concentrations, and serum FD, C3, and C4 concentrations were also measured at predefined time points.

[3] = MAD study, two additional single-dose cohorts: pharmacokinetics; details: for AUC(0-t) / Cmax / Tmax / AUC(0-inf): human, plasma, oral; for AUC(0-inf): read-out: AUC0-inf, Mean
Method: A multiple ascending dose (MAD) study of Compound 1 with two additional single-dose cohorts was also completed. […] Secondary objectives included evaluation of the pharmacokinetic (PK) profile and the relationship between Compound 1 PK and pharmacodynamic (PD) characteristics, that is, the inhibition of complement alternative pathway (AP) activity (PK/PD). In the MAD study, multiple-dose pharmacokinetics and pharmacodynamics of Compound 1 were evaluated in four dose groups administered Compound 1 (40, 80, 120 and 200 mg BID) in the fasted state for 14-days (Table 3). Eight subjects received active drug in each group; eight subjects received placebo in the first dose group (40 mg) and two subjects received placebo in each of the other three dose groups. Two additional cohorts were administered Compound 1 at single doses of 240 mg (fasted subjects) and 120 mg (fed subjects) (Table 3). The two single-dose cohorts each comprised six subjects receiving active drug and two subjects receiving placebo. Plasma and serum samples for PK and PD assessment were collected on selected days prior to dosing (at local troughs), and on days 1, 7, and 14 at 0.5-hour to 2-hour intervals for more detailed assessment.

[4] = 40 mg single dose, fasted, plasma
[5] = 40 mg single dose, fasted, urine
[6] = 80 mg single dose, fasted, plasma
[7] = 80 mg single dose, fasted, urine
[8] = 120 mg single dose, fasted, plasma
[9] = 120 mg single dose, fasted, urine
[10] = 120 mg single dose, fed moderate fat meal
[11] = 120 mg single dose, moderate-fat meal vs fasted (SAD)

With `CC(=O)c1nn(CC(=O)N2[C@H](C(=O)Nc3nc(Br)ccc3C)C[C@@]3(C)C[C@@H]23)c2ccc(-c3cnc(C)nc3)cc12` [Compound 1, (1R,3S,5R)-2-(2-(3-acetyl-5-(2-methylpyrimidin-5-yl)-1H-indazol-1-yl)acetyl)-N-(6-bromo-3-methylpyridin-2-yl)-5-methyl-2-azabicyclo[3.1.0]hexane-3-carboxamide] the “Maximum mean plasma concentration” value ([1]; 40 mg single dose) was 78.03 ± 19.65 ng/mL, the “CL/F, GM” value [1, 4] was 81.26 L/h and the “CL/F, Mean” value [1, 4] was 84.27 L/h. The “t½term, GM” value [1, 4] was 12.51 h, the “t½term, Mean” value [1, 4] was 13.08 h and the “Aeu, GM” value [1, 5] was 0.0671 mg. For the same molecule, the “Aeu, Mean” value [1, 5] was 0.0749 mg, the “Aeu(%), GM” value [1, 5] was 0.17% and the “Aeu(%), Mean” value [1, 5] was 0.19%. For the same molecule, the “Maximum mean plasma concentration” value ([1]; 80 mg single dose) was 224.05 ± 108.27 ng/mL, the “CL/F, GM” value [1, 6] was 63.52 L/h and the “CL/F, Mean” value [1, 6] was 70.25 L/h. The “t½term, GM” value [1, 6] was 9.80 h, the “t½term, Mean” value [1, 6] was 9.92 h and the “Aeu, GM” value [1, 7] was 0.2045 mg. For the same molecule, the “Aeu, Mean” value [1, 7] was 0.3058 mg, the “Aeu(%), GM” value [1, 7] was 0.26% and the “Aeu(%), Mean” value [1, 7] was 0.38%. The “Maximum mean plasma concentration” value ([1]; 120 mg single dose) was 282.83 ± 89.15 ng/mL, the “CL/F, GM” value [1, 8] was 71.87 L/h and the “CL/F, Mean” value [1, 8] was 73.25 L/h. For the same molecule, the “t½term, GM” value [1, 8] was 12.67 h, the “t½term, Mean” value [1, 8] was 13.90 h and the “Aeu, GM” value [1, 9] was 0.2683 mg. For the same molecule, the “Aeu, Mean” value [1, 9] was 0.2913 mg, the “Aeu(%), GM” value [1, 9] was 0.22% and the “Aeu(%), Mean” value [1, 9] was 0.24%. The “last post-dose time point with detected plasma concentration” value ([1]; all SAD dose groups) was 72 h, the CL renal ([1]; human, plasma and urine, oral, 40 mg to 120 mg single dose, read-out: Renal clearance, geometric mean, range over dose groups) was 2.67 to 3.17 mL/min and the AUC(0-inf) ([1]; human, plasma, oral, 40 mg, 40 mg single dose, fasted, plasma, read-out: AUC0-inf, GM) was 492 ng·h/mL. For the same molecule, the AUC(0-inf) ([1]; human, plasma, oral, 40 mg, 40 mg single dose, fasted, plasma, read-out: AUC0-inf, Mean) was 514 ng·h/mL, the Cmax ([1]; human, plasma, oral, 40 mg, 40 mg single dose, fasted, plasma, read-out: Cmax, GM) was 85.3 ng/mL and the Cmax ([1]; human, plasma, oral, 40 mg, 40 mg single dose, fasted, plasma, read-out: Cmax, Mean) was 88.6 ng/mL. The Cmax ([1]; human, plasma, oral, 40 mg, 40 mg single dose, fasted, plasma, read-out: Cmax, Median) was 79.1 ng/mL, the Vd/F ([1]; human, plasma, oral, 40 mg, 40 mg single dose, fasted, plasma, read-out: Vz/F, GM) was 1470 L and the Vd/F ([1]; human, plasma, oral, 40 mg, 40 mg single dose, fasted, plasma, read-out: Vz/F, Mean) was 1500 L. For the same molecule, the Tmax ([1]; human, plasma, oral, 40 mg, 40 mg single dose, fasted, plasma, read-out: tmax, GM) was 1.65 h, the Tmax ([1]; human, plasma, oral, 40 mg, 40 mg single dose, fasted, plasma, read-out: tmax, Mean) was 1.75 h and the Tmax ([1]; human, plasma, oral, 40 mg, 40 mg single dose, fasted, plasma, read-out: tmax, Median) was 1.5 h. It also gave an AUC(0-inf) ([1]; human, plasma, oral, 80 mg, 80 mg single dose, fasted, plasma, read-out: AUC0-inf, GM) of 1260 ng·h/mL, an AUC(0-inf) ([1]; human, plasma, oral, 80 mg, 80 mg single dose, fasted, plasma, read-out: AUC0-inf, Mean) of 1390 ng·h/mL and a Cmax ([1]; human, plasma, oral, 80 mg, 80 mg single dose, fasted, plasma, read-out: Cmax, GM) of 232 ng/mL. It also gave a Cmax ([1]; human, plasma, oral, 80 mg, 80 mg single dose, fasted, plasma, read-out: Cmax, Mean) of 253 ng/mL, a Cmax ([1]; human, plasma, oral, 80 mg, 80 mg single dose, fasted, plasma, read-out: Cmax, Median) of 247 ng/mL and a Vd/F ([1]; human, plasma, oral, 80 mg, 80 mg single dose, fasted, plasma, read-out: Vz/F, GM) of 899 L. For the same molecule, the Vd/F ([1]; human, plasma, oral, 80 mg, 80 mg single dose, fasted, plasma, read-out: Vz/F, Mean) was 992 L, the Tmax ([1]; human, plasma, oral, 80 mg, 80 mg single dose, fasted, plasma, read-out: tmax, GM) was 1.85 h and the Tmax ([1]; human, plasma, oral, 80 mg, 80 mg single dose, fasted, plasma, read-out: tmax, Mean) was 2 h. The Tmax ([1]; human, plasma, oral, 80 mg, 80 mg single dose, fasted, plasma, read-out: tmax, Median) was 1.75 h, the AUC(0-inf) ([1]; human, plasma, oral, 120 mg, 120 mg single dose, fasted, plasma, read-out: AUC0-inf, GM) was 1670 ng·h/mL and the AUC(0-inf) ([1]; human, plasma, oral, 120 mg, 120 mg single dose, fasted, plasma, read-out: AUC0-inf, Mean) was 1710 ng·h/mL. It also gave a Cmax ([1]; human, plasma, oral, 120 mg, 120 mg single dose, fasted, plasma, read-out: Cmax, GM) of 303 ng/mL, a Cmax ([1]; human, plasma, oral, 120 mg, 120 mg single dose, fasted, plasma, read-out: Cmax, Mean) of 316 ng/mL and a Cmax ([1]; human, plasma, oral, 120 mg, 120 mg single dose, fasted, plasma, read-out: Cmax, Median) of 260 ng/mL. It also gave a Vd/F ([1]; human, plasma, oral, 120 mg, 120 mg single dose, fasted, plasma, read-out: Vz/F, GM) of 1310 L, a Vd/F ([1]; human, plasma, oral, 120 mg, 120 mg single dose, fasted, plasma, read-out: Vz/F, Mean) of 1460 L and a Tmax ([1]; human, plasma, oral, 120 mg, 120 mg single dose, fasted, plasma, read-out: tmax, GM) of 2.54 h. The Tmax ([1]; human, plasma, oral, 120 mg, 120 mg single dose, fasted, plasma, read-out: tmax, Mean) was 2.58 h, the Tmax ([1]; human, plasma, oral, 120 mg, 120 mg single dose, fasted, plasma, read-out: tmax, Median) was 2.75 h and the half-life ([1]; human, plasma, oral, 40 mg to 120 mg single dose, read-out: Mean terminal elimination half-life (t1/2 term), range over dose groups) was 9.92 to 13.9 h. For the same molecule, the Tmax ([1]; human, plasma, oral, 40 mg to 120 mg single dose, read-out: Median tmax, range over dose groups) was 1.5 to 2.75 h, the CL renal ([1]; human, urine, oral, 40 mg, 40 mg single dose, fasted, urine, read-out: CLr, GM (converted)) was 2.67 mL/min and the CL renal ([1]; human, urine, oral, 40 mg, 40 mg single dose, fasted, urine, read-out: CLr, Mean (converted)) was 2.67 mL/min. It also gave a CL renal ([1]; human, urine, oral, 80 mg, 80 mg single dose, fasted, urine, read-out: CLr, GM (converted)) of 3 mL/min, a CL renal ([1]; human, urine, oral, 80 mg, 80 mg single dose, fasted, urine, read-out: CLr, Mean (converted)) of 3.5 mL/min and a CL renal ([1]; human, urine, oral, 120 mg, 120 mg single dose, fasted, urine, read-out: CLr, GM (converted)) of 3.17 mL/min. For the same molecule, the CL renal ([1]; human, urine, oral, 120 mg, 120 mg single dose, fasted, urine, read-out: CLr, Mean (converted)) was 3.5 mL/min, the “change in serum CP activity and serum factor D, C3, C4 concentrations” value ([2]; MAD study single-dose cohorts (240 mg fasted, 120 mg fed)) was “no significant changes” and the “change in fD, C3, C4 serum concentration and serum total CP function” value ([2]; SAD, single dose up to 120 mg, vs baseline and placebo) was “no significant changes”. The “t½term, Mean” value [3, 10] was 9.39 h, the “mean AUC lower in the fed state vs fasted” value [3, 11] was 00.8% and the “mean Cmax lower in the fed state vs fasted” value [3, 11] was 2.2%. The “t½term, Mean” value ([3]; 240 mg single dose, fasted) was 9.33 h, the AUC(0-t) ([3]; 120 mg, 120 mg single dose, fed moderate fat meal, read-out: AUC(0-12), Mean) was 1250 ng·h/mL and the AUC(0-t) ([3]; 120 mg, 120 mg single dose, fed moderate fat meal, read-out: AUC(0-72), Mean) was 1490 ng·h/mL. It also gave an AUC(0-t) ([3]; 240 mg, 240 mg single dose, fasted, read-out: AUC(0-12), Mean) of 2770 ng·h/mL, an AUC(0-t) ([3]; 240 mg, 240 mg single dose, fasted, read-out: AUC(0-72), Mean) of 3510 ng·h/mL and a Cmax [3, 10] of 309 ng/mL. For the same molecule, the Tmax [3, 10] was 2.83 h, the AUC(0-inf) [3, 10] was 1490 ng·h/mL and the Cmax ([3]; 240 mg single dose, fasted) was 594 ng/mL. For the same molecule, the Tmax ([3]; 240 mg single dose, fasted) was 2.67 h and the AUC(0-inf) ([3]; 240 mg single dose, fasted) was 3520 ng·h/mL.
